Consider 36 molecules from patent US8946203B2, “Benzodioxane inhibitors of leukotriene production” (Boehringer Ingelheim International GmbH, priority 2012, dated 2015).

Molecules are shown by their SMILES.

The target in the experiment is T1, human LTA4 hydrolase (Homo sapiens, UniProt P09960).
T1 sequence (P09960 1-611): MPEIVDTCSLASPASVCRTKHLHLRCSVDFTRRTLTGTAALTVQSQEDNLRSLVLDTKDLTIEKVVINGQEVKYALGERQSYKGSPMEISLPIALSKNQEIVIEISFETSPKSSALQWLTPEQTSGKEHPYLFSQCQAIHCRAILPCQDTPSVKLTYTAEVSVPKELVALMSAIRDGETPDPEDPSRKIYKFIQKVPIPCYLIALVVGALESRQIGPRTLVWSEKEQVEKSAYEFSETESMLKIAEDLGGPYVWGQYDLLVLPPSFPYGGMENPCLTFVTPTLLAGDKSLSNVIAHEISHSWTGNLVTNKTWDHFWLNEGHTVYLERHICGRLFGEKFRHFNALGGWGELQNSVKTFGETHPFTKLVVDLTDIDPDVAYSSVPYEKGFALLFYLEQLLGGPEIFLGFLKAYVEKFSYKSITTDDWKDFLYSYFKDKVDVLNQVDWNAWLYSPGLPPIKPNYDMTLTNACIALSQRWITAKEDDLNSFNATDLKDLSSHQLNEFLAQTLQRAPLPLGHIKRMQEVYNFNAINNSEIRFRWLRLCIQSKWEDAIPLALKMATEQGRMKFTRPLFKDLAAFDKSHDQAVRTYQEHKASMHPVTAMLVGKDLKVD
The experiment can be described thus: LTA4H Enzyme assay (cleavage of Arg-AMC, fluorescence). Type of experiment: biochemical. The conditions noted are these: LTA4H Enzyme 1 nM, Arg-AMC substrate 50 μM, room temperature 1 h, fluorescence; read-out: IC50 values of LTA4H Enzyme assay. The gist of the method:
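Peptidase activity of human LTA4H (1 nM final) on Arg-AMC (50 μM final), with compound, 1 h at room temperature. Buffer: 50 mM Tris-HCl pH 7.5, 100 mM KCl, 0.5% BSA.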
In general, IC50 refers to the point on the concentration scale where inhibition reaches its midpoint. Take `CS(=O)(=O)C1CCN(Cc2ccc(C3COc4ccccc4O3)cc2)CC1` (racemic) [Example 39, 1-[4-(2,3-dihydro-1,4-benzodioxin-2-yl)benzyl]-4-(methylsulfonyl)piperidine]: the IC50 was determined as 2.14 nM. As for `NC1CCN(Cc2ccc([C@H]3COc4ccccc4O3)cc2)CC1` [Example 217, 1-[(S)-4-(2,3-Dihydro-benzo[1,4]dioxin-2-yl)-benzyl]-piperidin-4-ylamine], the IC50 is 2.28 nM. For the molecule `CC(C)(O)C(=O)NC1CCN(Cc2ccc([C@H]3COc4cccnc4O3)cc2)CC1` [Example 221, N-(1-{4-[(3S)-2,3-dihydro[1,4]dioxino[2,3-b]pyridin-4-yl]benzyl}piperidin-4-yl)-2-hydroxy-2-methylpropanamide], the IC50 was 0.16 nM. As for `CN(C)C(=O)CC1CCN(Cc2ccc(C3COc4ccccc4O3)cc2)CC1` (racemic) [Example 38, 2-{1-[4-(2,3-dihydro-1,4-benzodioxin-2-yl)benzyl]piperidin-4-yl}-N,N-dimethylacetamide], the IC50 was found to be 1.14 nM. Under `CC1(C)CCN(Cc2ccc(C3COc4ccccc4O3)cc2)CC1` (racemic) [Example 3, 1-[4-(2,3-dihydro-1,4-benzodioxin-2-yl)benzyl]-4,4-dimethylpiperidine] stands 2.57 nM; under `O=C(O)C1CN(Cc2ccc([C@H]3COc4ccccc4O3)cc2)Cc2ccccc21` (stereo partly drawn) [Example 56, 2-{4-[(2S)-2,3-dihydro-1,4-benzodioxin-2-yl]benzyl}-1,2,3,4-tetrahydroisoquinoline-4-carboxylic acid], 6.08 nM. For `CN(CCc1ccccn1)Cc1ccc(C2COc3ccccc3O2)cc1` (racemic) [Example 42, N-[4-(2,3-dihydro-1,4-benzodioxin-2-yl)benzyl]-N-methyl-2-(pyridin-2-yl)ethanamine], the IC50 is 0.69 nM.

Take `O=C(O)C[C@H]1CCN(Cc2ccc([C@H]3COc4ccccc4O3)cc2)C1` [Example 184, [(3R)-1-{4-[(2S)-2,3-dihydro-1,4-benzodioxin-2-yl]benzyl}pyrrolidin-3-yl]acetic acid]: the IC50 amounted to 0.11 nM. As to `CC1COCCN1Cc1ccc([C@H]2COc3ccccc3O2)cc1` (stereo partly drawn) [Example 107, 4-{4-[(2S)-2,3-dihydro-1,4-benzodioxin-2-yl]benzyl}-3-methylmorpholine], the IC50 worked out at 1.35 nM. On to `c1ccc2c(c1)OCC(c1ccc(CN3CCn4cnnc4C3)cc1)O2` (racemic) [Example 16, 7-[4-(2,3-dihydro-1,4-benzodioxin-2-yl)benzyl]-5,6,7,8-tetrahydro[1,2,4]triazolo[4,3-a]pyrazine], for which the IC50 was 2.32 nM.

For `O=C(NCCO)C1CCN(Cc2ccc([C@H]3COc4ccccc4O3)cc2)CC1` [Example 96, 1-{4-[(2S)-2,3-dihydro-1,4-benzodioxin-2-yl]benzyl}-N-(2-hydroxyethyl)piperidine-4-carboxamide], the half-maximal inhibitory concentration (IC50) was found to be 0.22 nM.

Take `c1ccc2c(c1)OC[C@@H](c1ccc(CN3CCCC3)cc1)O2` (single isomer, unassigned) [Example 197]: the IC50 was found to be 2.69 nM.

On to `O=C(O)CCCC1CCN(Cc2ccc([C@H]3COc4cccnc4O3)cc2)CC1` [Example 151, 4-(1-{4-[(3S)-2,3-dihydro[1,4]dioxino[2,3-b]pyridin-3-yl]benzyl}piperidin-4-yl)butanoic acid], for which the IC50 was 0.1 nM. With `NC(=O)C1CCN(Cc2ccc([C@@H]3COc4cccnc4O3)cc2)CC1` [Example 207, 1-{4-[(3R)-2,3-dihydro[1,4]dioxino[2,3-b]pyridin-3-yl]benzyl}piperidine-4-carboxamide], the IC50 was found to be 0.86 nM. In the case of `c1ccc2c(c1)OCC(c1ccc(CN3CCCCCC3)cc1)O2` (racemic) [Example 40, 1-[4-(2,3-dihydro-1,4-benzodioxin-2-yl)benzyl]azepane], the IC50 turned out to be 0.82 nM. For `CN(Cc1ccc([C@H]2COc3cccnc3O2)cc1)C1CCN(S(C)(=O)=O)CC1` [Example 169, N-{4-[(3S)-2,3-dihydro[1,4]dioxino[2,3-b]pyridin-3-yl]benzyl}-N-methyl-1-(methylsulfonyl)piperidin-4-amine], the IC50 worked out at 0.33 nM. In the case of `OC[C@@H]1CCCC[C@H]1NCc1ccc([C@H]2COc3ccccc3O2)cc1` [Example 89, [(1R,2R)-2-({4-[(2S)-2,3-dihydro-1,4-benzodioxin-2-yl]benzyl}amino)cyclohexyl]methanol], the IC50 stood at 1.4 nM. In the case of `Oc1ccc(CNCc2ccc([C@H]3COc4ccccc4O3)cc2)cc1` [Example 111, 4-[({4-[(2S)-2,3-dihydro-1,4-benzodioxin-2-yl]benzyl}amino)methyl]phenol], the IC50 worked out at 2.25 nM.

In the case of `O=S1(=O)CCN(Cc2ccc(C3COc4ccccc4O3)cc2)CC1` (racemic) [Example 7, 4-[4-(2,3-dihydro-1,4-benzodioxin-2-yl)benzyl]thiomorpholine 1,1-dioxide], the IC50 stood at 2.79 nM. On to `O=C1OCCN1Cc1ccc(C2COc3cccnc3O2)cc1` (stereo not drawn) [Example 209, 3-[4-(2,3-dihydro[1,4]dioxino[2,3-b]pyridin-3-yl)benzyl]-1,3-oxazolidin-2-one], for which the IC50 came out at 12.4 nM.

Take `O=C1NCCC12CCN(Cc1ccc([C@H]3COc4ccccc4O3)cc1)CC2` (single isomer, unassigned) [Example 194]: the IC50 came out at 0.15 nM. Turning to `CC(c1ccc([C@H]2COc3ccccc3O2)cc1)N1CCCC1` (stereo partly drawn) [Example 225, 1-{1-[(S)-4-(2,3-dihydro-benzo[1,4]dioxin-2-yl)-phenyl]-ethyl}-pyrrolidine], the IC50 turned out to be 5.3 nM. As to `O[C@@H]1CCN(Cc2ccc(C3COc4ccccc4O3)cc2)C1` (mixture of isomers) [Example 34, (3R)-1-[4-(2,3-dihydro-1,4-benzodioxin-2-yl)benzyl]pyrrolidin-3-ol], the 50% inhibitory concentration (IC50) turned out to be 1.89 nM.

For the molecule `OCC1CCN(Cc2ccc([C@H]3COc4cccnc4O3)cc2)CC1` [Example 146, (1-{4-[(3S)-2,3-dihydro[1,4]dioxino[2,3-b]pyridin-3-yl]benzyl}piperidin-4-yl)methanol], the IC50 amounted to 0.29 nM. Turning to `CCN(C)Cc1ccc([C@H]2COc3ccccc3O2)cc1` [Example 74, N-{4-[(2S)-2,3-dihydro-1,4-benzodioxin-2-yl]benzyl}-N-methylethanamine], the IC50 turned out to be 1 nM. With `CC(=O)NC1CCN(Cc2ccc([C@H]3COc4ccccc4O3)cc2)C1` (stereo partly drawn) [Example 82, N-(1-{4-[(2S)-2,3-dihydro-1,4-benzodioxin-2-yl]benzyl}pyrrolidin-3-yl)acetamide], the IC50 was 0.2 nM. For `CS(=O)(=O)N1CCCC12CCN(Cc1ccc([C@H]3COc4ccccc4O3)cc1)C2` (stereo partly drawn) [Example 122, 7-{4-[(2S)-2,3-dihydro-1,4-benzodioxin-2-yl]benzyl}-1-(methylsulfonyl)-1,7-diazaspiro[4.4]nonane], the IC50 was 0.91 nM. For `OC(C1CCN(Cc2ccc([C@H]3COc4ccccc4O3)cc2)CC1)C(F)(F)F` (stereo partly drawn) [Example 21, 1-(1-{4-[(2S)-2,3-dihydro-1,4-benzodioxin-2-yl]benzyl}piperidin-4-yl)-2,2,2-trifluoroethanol], the IC50 came to 4.43 nM. Take `O=C1CCCN1CC1CCCN(Cc2ccc([C@H]3COc4cccnc4O3)cc2)C1` (stereo partly drawn) [Example 163, 1-[(1-{4-[(3S)-2,3-dihydro[1,4]dioxino[2,3-b]pyridin-3-yl]benzyl}piperidin-3-yl)methyl]pyrrolidin-2-one]: the IC50 was found to be 0.17 nM. Consider `CC(=O)N1CCN(Cc2ccc(C3COc4ccccc4O3)cc2)CC1` (racemic) [Example 11, 1-{4-[4-(2,3-dihydro-1,4-benzodioxin-2-yl)benzyl]piperazin-1-yl}ethanone], for which the IC50 worked out at 2.95 nM.

For the molecule `CN(C)Cc1ccc([C@H]2COc3ccccc3O2)cc1` [Example 75, 1-{4-[(2S)-2,3-dihydro-1,4-benzodioxin-2-yl]phenyl}-N,N-dimethylmethanamine], the IC50 came to 4.51 nM. For `COCC(=O)N1CCCC12CCN(Cc1ccc([C@H]3COc4ccccc4O3)cc1)C2` (stereo partly drawn) [Example 128, 1-(7-{4-[(2S)-2,3-dihydro-1,4-benzodioxin-2-yl]benzyl}-1,7-diazaspiro[4.4]non-1-yl)-2-methoxyethanone], the IC50 was 0.65 nM. With `O=C1CCN(Cc2ccc([C@H]3COc4ccccc4O3)cc2)CCN1` [Example 131, 1-{4-[(2S)-2,3-dihydro-1,4-benzodioxin-2-yl]benzyl}-1,4-diazepan-5-one], the concentration for half-maximal inhibition (IC50) turned out to be 1.73 nM. Turning to `O=C(O)[C@@H]1CCCN(Cc2ccc([C@H]3COc4ccccc4O3)cc2)C1` [Example 19, (3R)-1-{4-[(2S)-2,3-dihydro-1,4-benzodioxin-2-yl]benzyl}piperidine-3-carboxylic acid], the half-maximal inhibitory concentration (IC50) turned out to be 0.73 nM. Then `O=C1NCCC12CCN(Cc1ccc(C3COc4ccccc4O3)cc1)CC2` (racemic) [Example 4, 8-[4-(2,3-dihydro-1,4-benzodioxin-2-yl)benzyl]-2,8-diazaspiro[4.5]decan-1-one], with 0.74 nM; and `NC(=O)N1CCCC12CCN(Cc1ccc([C@H]3COc4ccccc4O3)cc1)C2` (stereo partly drawn) [Example 119, 7-{4-[(2S)-2,3-dihydro-1,4-benzodioxin-2-yl]benzyl}-1,7-diazaspiro[4.4]nonane-1-carboxamide], with 0.1 nM.
